Data as given in US20220047716A1, “COMBINATION THERAPIES WITH ANTI-FOLATE RECEPTOR ANTIBODY CONJUGATES” (SUTRO BIOPHARMA, INC., priority 2018, published 2022).
Values joined by “and” are separate entries in the source; they are usually repeats but may differ in a detail not shown here. Equal values may be shown once.

How the values were obtained:
[1] = tested on: Igrov1 tumors; test: Igrov1 ovarian tumor xenograft efficacy in SCID Beige mice; assay type: in vivo; details: Igrov1, day 29; ADC Molecule 4 2.5 mg/kg single dose; carboplatin 60 mg/kg q7dx2
Protocol: Igrov1 ovarian cancer cells were implanted subcutaneously into SCID Beige mice and treated with a single dose of 2.5 mg/kg FolRα ADC variants listed in Table 20. ADCs were administered when tumors reached ˜150 mm^3.

[2] = Pharmacokinetics of free drugs (I) and (II) in Sprague-Dawley rats; assay type: in vivo; details: IV bolus 0.4 or 1 mg/kg, data not shown
Protocol: To assess the pharmacokinetic profile of free drug (I), female Sprague-Dawley rats (mean body weight 250 g) were given either a 0.4 mg/kg or 1 mg/kg dose by IV bolus administration (N=three animal per dose level) via an indwelling jugular vein catheter. Blood samples were collected at […], 1, 2, 8, 24, 32, 48, and 72 hour post-dose. Levels of free drug (I) and (II) were measured by LC-MS/MS and non-compartmental pharmacokinetic analysis was conducted using Phoenix WinNonlin Version 6.4 (Pharsight Corporation). The PK of free drug (I) could not be estimated due to the fact that concentrations of (I) increased from 2 to 8 hours and were undetectable thereafter.

[3] = Body weight change in rats given free drugs; assay type: in vivo; details: IV bolus, free drug (I) two doses (0.4, 1 mg/kg), free drug (II) 0.4 mg/kg
[4] = tested on: MC38-hFolRα tumors; test: MC38-hFolRα tumor model, combination with Avelumab; details: ADC Molecule 4 10 or 15 mg/kg once IV; Avelumab q3dx3 intraperitoneally
Protocol: Growth curves are shown until >50% of animals in the single agent treatment groups were euthanized due to reaching tumor size limit based on IACUC protocol. […] Statistical analysis for comparison to vehicle control was performed using one-way ANOVA with Dunnett's multiple comparisons test. A probability of less than 5% (p<0.05) was considered as significant. […] All graphs are presented as mean or individual values±SEM.

## N.N.O=C([O-])C1(C(=O)[O-])CCC1.[Pt+2] [carboplatin]
[1]
  Final mean tumor size: 842 mm^3
  Tumor growth inhibition (TGI): 70% and 47%

## CN[C@H](C(=O)N[C@H](C(=O)N(C)[C@H](/C=C(\C)C(=O)O)C(C)C)C(C)(C)C)C(C)(C)c1cccc(N)c1 [free drug (I)]
[2]
  Plasma level of free drug: undetectable at 24 hours post dose
[3]
  Effect on body weight: did not have an effect on the body weight of the animals

## COc1cc2cc(c1Cl)N(C)C(=O)C[C@H](OC(=O)[C@H](C)N(C)C(=O)CCC(C)(C)S)[C@]1(C)O[C@H]1[C@H](C)[C@@H]1C[C@@](O)(NC(=O)O1)[C@H](OC)/C=C/C=C(/C)C2 [free drug (II), reference compound]
[3]
  Effect on body weight: progressive body weight loss was observed

## Avelumab: PD-L1 inhibitor Avelumab (clinical grade)
[4]
  Initial effect on MC38-hFolRα tumor growth: tumor stasis until approximately day 7
